Test results: patent US20150148311A1, “NON-SYSTEMIC TGR5 AGONISTS” (Ardelyx, Inc., priority 2011, published 2015)

Key:
human IBAT = biological target: T1, human IBAT (Homo sapiens, UniProt Q12908); test: IBAT counter screen, [3H]taurocholic acid uptake in IBAT-transfected HEK293 cells; assay type: cell-based; settings: read-out: pEC50 human IBAT (converted)
T1 construct: expressed in transfected cells; host or cells: HEK293
T1 sequence (Q12908 1-348): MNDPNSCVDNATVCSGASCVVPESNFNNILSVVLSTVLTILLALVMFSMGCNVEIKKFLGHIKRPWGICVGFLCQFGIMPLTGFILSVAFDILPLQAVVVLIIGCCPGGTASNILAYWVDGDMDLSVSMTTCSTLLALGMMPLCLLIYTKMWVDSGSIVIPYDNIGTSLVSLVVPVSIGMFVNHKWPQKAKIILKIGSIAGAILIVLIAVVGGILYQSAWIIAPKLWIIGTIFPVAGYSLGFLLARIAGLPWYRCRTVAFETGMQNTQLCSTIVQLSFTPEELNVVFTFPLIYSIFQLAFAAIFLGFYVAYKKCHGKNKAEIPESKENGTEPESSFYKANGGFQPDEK
Method: Following a 40-min incubation, the solution was removed, and the cells were washed twice with uptake buffer. Cells were lysed by addition of 20 μL 0.1% Tween 80 followed by 100 μL scintillation fluid and counted using a TopCount (Perkin Elmer).

[1] = biological target: T2, endogenously expressed TGR5 in NCI H716 (Homo sapiens, UniProt Q8TDU6); test: Cell-based TGR5 assay, NCI-H716 cells endogenously expressing human TGR5, cAMP by HTRF; settings: 30 min at 37 C, 22 nM to 50 μM, read-out: pEC50 endogenously expressed TGR5 in NCI H716 (converted)
T2 construct: human caecum carcinoma cell line NCI-H716 which endogenously expresses human TGR5; endogenous in cells; host or cells: NCI-H716
T2 sequence (Q8TDU6 1-330): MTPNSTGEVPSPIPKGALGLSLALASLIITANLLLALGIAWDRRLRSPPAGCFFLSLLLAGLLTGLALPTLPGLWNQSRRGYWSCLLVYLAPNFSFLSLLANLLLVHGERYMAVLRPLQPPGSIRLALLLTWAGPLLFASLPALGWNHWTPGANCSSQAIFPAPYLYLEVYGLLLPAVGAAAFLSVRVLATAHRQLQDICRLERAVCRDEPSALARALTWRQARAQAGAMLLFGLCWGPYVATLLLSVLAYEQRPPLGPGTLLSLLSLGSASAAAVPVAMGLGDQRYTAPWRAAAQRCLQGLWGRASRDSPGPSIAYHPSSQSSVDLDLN
Procedure, shortened: (§1)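 cAMP HTRF read-out, converted to concentration via standard curve, after a 30 min, 37 °C compound exposure in HBSS with 10 mM HEPES pH 7.4 and 0.5 mM IBMX, compounds serially diluted 3-fold from 10 mM DMSO stock then 100-fold. Cells: stable human TGR5 HEK293, or NCI-H716 expressing TGR5 endogenously.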

human TGR5 = biological target: T3, human TGR5 (Homo sapiens, UniProt Q8TDU6); test: Cell-based TGR5 assay, HEK293 cells stably expressing human TGR5, cAMP by HTRF; settings: HEK293 cells stably expressing human TGR5, 30 min at 37 C, 0.05 nM to 10 μM, read-out: pEC50 Human TGR5 (converted)
T3 construct: expressed in transfected cells
T3 sequence (Q8TDU6 1-330): T2 sequence (Q8TDU6 1-330)
Procedure, shortened: as §1

SMILES | EC50 (human IBAT) [nM] | EC50 [1] [nM] | EC50 (human TGR5) [nM]
CC1(C)C[C@@H](C(=O)N2CCN(C3CC3)c3ccccc32)N(Cc2cc(Cl)ccc2Cl)C1 [Example 19, (S)-(4-cyclopropyl-3,4-dihydroquinoxaline-1 (2H)-yl)(1-(2,5-dichlorobenzyl)-4,4-dimethylpyrrolidin-2-yl)methanone] | > 25100 | 1260 to 50100 | 1260 to 50100
CC(C)(COc1cc(Cl)ccc1Cl)C(=O)N1CCN(C2CC2)c2ccccc21 [Example 31, 1-(4-cyclopropyl-1,2,3,4-tetrahydroquinoxalin-1-yl)-3-(2,5-dichlorophenoxy)-2,2-dimethylpropan-1-one] | > 25100 | 126 to 1000 | < 100
O=C(N1CCN(C2CC2)c2ccccc21)N1CCCC1Cc1ccccc1Cl (stereo not drawn) [Example 28] | > 25100 | 1260 to 50100 | 1260 to 50100
CC(C)(OCc1cc(Cl)ccc1Cl)C(=O)N1CCN(C2CC2)c2ccccc21 [Example 1, 1-(4-cyclopropyl-1,2,3,4-tetrahydroquinoxalin-1-yl)-2-[(2,5-dichlorophenyl)methoxy]-2-methylpropan-1-one] | > 25100 | 126 to 1000 | 126 to 1000
O=C([C@@H]1CCCCN1Cc1cc(Cl)ccc1Cl)N1CCCc2ccccc21 [Example 11, (S)-(1-(2,5-dichlorobenzyl)piperidin-2-yl)(3,4-dihydroquinolin-1(2H)-yl)methanone] | > 25100 | 1260 to 50100 | 1260 to 50100
O=C([C@@H]1CCC(=O)N1Cc1cc(Cl)ccc1Cl)N1CCN(C2CC2)c2ccccc21 [Example 25, (S)-5-(4-cyclopropyl-1,2,3,4-tetrahydroquinoxaline-1-carbonyl)-1-(2,5-dichlorobenzyl)pyrrolidin-2-one] | > 25100 | 1260 to 50100 | 1260 to 50100
O=C([C@@H]1CCCN1S(=O)(=O)c1cc(Cl)ccc1Cl)N1CCN(C2CC2)c2ccccc21 [Example 18] | > 25100 | 1260 to 50100 | 1260 to 50100
O=C(c1ncoc1Cc1cc(Cl)ccc1Cl)N1CCN(C2CC2)c2ccccc21 [Example 66, 1-cyclopropyl-4-([5-[(2,5-dichlorophenyl)methyl]-1,3-oxazol-4-yl]carbonyl)-1,2,3,4-tetrahydroquinoxaline] | > 25100 | 1260 to 50100 | 1260 to 50100
O=C(c1cccn1Cc1cc(Cl)ccc1Cl)N1CCN(C2CC2)c2ccccc21 [Example 61, (4-cyclopropyl-3,4-dihydroquinoxalin-1(2H)-yl)(1-(2,5-dichlorobenzyl)-1H-pyrrol-2-yl)methanone] | > 25100 | 126 to 1000 | 126 to 1000
O=C(COc1cc(Cl)ccc1Cl)N1CCN(C2CC2)c2ccccc21 [Example 4, 1-(4-cyclopropyl-3,4-dihydroquinoxalin-1(2H)-yl)-2-(2,5-dichlorophenoxy)ethanone] | > 25100 | > 50100 | 1260 to 50100
CN(C(=O)C1(OCc2cc(Cl)ccc2Cl)CC1)c1ccccc1OCC1CC1 [Example 40, N-(2-(cyclopropylmethoxy)phenyl)-1-(2,5-dichlorobenzyloxy)-N-methylcyclopropanecarboxamide] | > 25100 | 126 to 1000 | < 100
O=C([C@@H]1CCCCN1C(=O)c1cc(Cl)ccc1Cl)N1CCN(C2CC2)c2ccccc21 [Example 13, (S)-(2-(4-cyclopropyl-1,2,3,4-tetrahydroquinoxaline-1-carbonyl)piperidin-1-yl)(2,5-dichlorophenyl)methanone] | > 25100 | 1260 to 50100 | 1260 to 50100
O=C(c1cccc(OCc2cc(Cl)ccc2Cl)n1)N1CCN(C2CC2)c2ccccc21 [Example 63, 1-cyclopropyl-4-([6-[(2,5-dichlorophenyl)methoxy]pyridin-2-yl]carbonyl)-1,2,3,4-tetrahydroquinoxaline] | > 25100 | 1260 to 50100 | 1260 to 50100
O=C(N1CCN(C2CC2)c2ccccc21)C1(OCc2cc(Cl)ccc2Cl)CCCC1 [Example 8, (4-cyclopropyl-3,4-dihydroquinoxalin-1(2H)-yl)(1-(2,5 dichlorobenzyloxy)cyclopentyl)methanone] | > 25100 | 126 to 1000 | < 100
COc1cccnc1N(C)C(=O)C1(OCc2cc(Cl)ccc2Cl)CC1 [Example 37, 1-(2,5-dichlorobenzyloxy)-N-(3-methoxypyridin-2-yl)-N-methylcyclopropanecarboxamide] | > 25100 | 1260 to 50100 | 126 to 1000
Cc1nn(C)c(Oc2cc(Cl)ccc2Cl)c1C(=O)N1CCN(C2CC2)c2ccccc21 [Example 65, 1-cyclopropyl-4-[[5-(2,5-dichlorophenoxy)-1,3-dimethyl-1H-pyrazol-4-yl]carbonyl]-1,2,3,4-tetrahydroquinoxaline] | > 25100 | 1260 to 50100 | 1260 to 50100
COc1ccccc1N(C)C(=O)C1(OCc2cc(Cl)ccc2Cl)CC1 [Example 36, 1-(2,5-dichlorobenzyloxy)-N-(2-methoxyphenyl)-N-methylcyclopropanecarboxamide] | > 25100 | 126 to 1000 | < 100
O=C([C@@H]1C2CC2CN1Cc1cc(Cl)ccc1Cl)N1CCN(C2CC2)c2ccccc21 (stereo partly drawn) [Example 24, (4-cyclopropyl-3,4-dihydroquinoxaline-1(2H)-yl)((2S)-3-(2,5-dichlorobenzyl)-3-azabicyclo[3.1.0]hexan-2-yl)methanone] | > 25100 | 1260 to 50100 | 1260 to 50100
O=C(N1CCN(C2CC2)c2ccccc21)C1(NCc2cc(Cl)ccc2Cl)CCC1 [Example 56] | > 25100 | < 100 | < 100
O=C(c1cccc(=O)n1Cc1cc(Cl)ccc1Cl)N1CCN(C2CC2)c2ccccc21 [Example 64, 6-[(4-cyclopropyl-1,2,3,4-tetrahydroquinoxalin-1-yl)carbonyl]-1-[(2,5-dichlorophenyl)methyl]-1,2-dihydropyridin-2-one] | > 25100 | 1260 to 50100 | 1260 to 50100
C[C@@]1(C(=O)N2CCN(C3CC3)c3ccccc32)CCCN1Cc1cc(Cl)ccc1Cl [Example 20, (S)-(4-cyclopropyl-3,4-dihydroquinoxaline-1(2H)-yl)(1-(2,5-dichlorobenzyl)-2-methylpyrrolidin-2-yl)methanone] | > 25100 |  | 
O=C(C1=C(Oc2cc(Cl)ccc2Cl)CCCC1)N1CCN(C2CC2)c2ccccc21 [Example 29, (4-cyclopropyl-3,4-dihydroquinoxalin-1(2H)-yl)(2-(2,5-dichlorophenoxy)cyclohex-1-enyl)methanone] | > 25100 | 126 to 1000 | < 100
O=C([C@@H]1C[C@H](O)CN1Cc1cc(Cl)ccc1Cl)N1CCN(C2CC2)c2ccccc21 [Example 6, (4-cyclopropyl-3,4-dihydroquinoxalin-1(2H)-yl)((2S,4S)-1-(2,5-dichlorobenzyl)-4-hydroxypyrrolidin-2-yl)methanone] | > 25100 |  | 
O=C([C@@H]1C[C@H](F)CN1Cc1cc(Cl)ccc1Cl)N1CCN(C2CC2)c2ccccc21 [Example 3, (4-cyclopropyl-3,4-dihydroquinoxalin-1(2H)-yl)((2S,4S)-1-(2,5-dichlorobenzyl)-4-fluoropyrrolidin-2-yl)methanone] | > 25100 |  | 
